Test [1] addresses Thymidine kinase 2, mitochondrial (Homo sapiens) (UniProt O00142).
For test [2], the system named is Thymidine kinase (Herpes simplex virus type 1). As to conditions: Human alphaherpesvirus 1.

Chain of Thymidine kinase 2, mitochondrial (Homo sapiens) (O00142 whole entry, looked up): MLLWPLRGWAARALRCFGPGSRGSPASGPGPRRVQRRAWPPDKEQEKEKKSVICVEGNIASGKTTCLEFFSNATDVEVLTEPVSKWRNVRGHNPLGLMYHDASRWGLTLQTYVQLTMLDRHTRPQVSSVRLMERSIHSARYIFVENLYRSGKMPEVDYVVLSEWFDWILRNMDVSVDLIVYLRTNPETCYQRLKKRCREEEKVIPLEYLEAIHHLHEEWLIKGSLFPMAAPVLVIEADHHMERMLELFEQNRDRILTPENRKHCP

For the molecule `Nc1nc(O)c2ncn(C/C=C\COC(c3ccccc3)(c3ccccc3)c3ccccc3)c2n1`, the NEA entry in test [1] and in test [2] was “Not estimated accurately” each time. In the case of `Cc1cn(C/C=C\CO)c(=O)[nH]c1=O`, the NEA entry in test [1] and in test [2] was “Not estimated accurately” in each case. With `Cc1cn(CC#CCOC(c2ccccc2)(c2ccccc2)c2ccccc2)c(=O)[nH]c1=O`, the NEA result in test [1] was “Not estimated accurately”.

On to `COc1ccc(C(OC[C@H]2O[C@@H](n3cc(C)c(=O)[nH]c3=O)C[C@@H]2O)(c2ccccc2)c2ccc(OC)cc2)cc1`, for which, in test [1], the NEA result is “Not estimated accurately”. As for `Cc1cn(C/C=C\COC(c2ccccc2)(c2ccccc2)c2ccccc2)c(=O)n(C)c1=O`, the NEA result in test [1] and in test [2] was “Not estimated accurately” in each case. As to `Cc1cn(Cc2ccccc2COC(c2ccccc2)(c2ccccc2)c2ccccc2)c(=O)[nH]c1=O`, the NEA entry in test [1] and in test [2] was “Not estimated accurately” each time. On to `Cc1cn(C/C=C\COC(c2ccccc2)(c2ccccc2)c2ccccc2)c(=O)nc1N`, for which the NEA result in test [1] and in test [2] was “Not estimated accurately” throughout.
